These results are taken from US10703756B2, “Pyrrolo[2,3-D]pyrimidinyl, pyrrolo[2,3-B]pyrazinyl, pyrrolo[2,3-B]pyridinyl acrylamides and epoxides thereof” (Pfizer Inc., priority 2015, dated 2020).

Each structure is given as a SMILES string.

One experiment addresses T1, JAK3 enzyme (Homo sapiens, UniProt P52333).
T1 sequence (P52333 1-1124): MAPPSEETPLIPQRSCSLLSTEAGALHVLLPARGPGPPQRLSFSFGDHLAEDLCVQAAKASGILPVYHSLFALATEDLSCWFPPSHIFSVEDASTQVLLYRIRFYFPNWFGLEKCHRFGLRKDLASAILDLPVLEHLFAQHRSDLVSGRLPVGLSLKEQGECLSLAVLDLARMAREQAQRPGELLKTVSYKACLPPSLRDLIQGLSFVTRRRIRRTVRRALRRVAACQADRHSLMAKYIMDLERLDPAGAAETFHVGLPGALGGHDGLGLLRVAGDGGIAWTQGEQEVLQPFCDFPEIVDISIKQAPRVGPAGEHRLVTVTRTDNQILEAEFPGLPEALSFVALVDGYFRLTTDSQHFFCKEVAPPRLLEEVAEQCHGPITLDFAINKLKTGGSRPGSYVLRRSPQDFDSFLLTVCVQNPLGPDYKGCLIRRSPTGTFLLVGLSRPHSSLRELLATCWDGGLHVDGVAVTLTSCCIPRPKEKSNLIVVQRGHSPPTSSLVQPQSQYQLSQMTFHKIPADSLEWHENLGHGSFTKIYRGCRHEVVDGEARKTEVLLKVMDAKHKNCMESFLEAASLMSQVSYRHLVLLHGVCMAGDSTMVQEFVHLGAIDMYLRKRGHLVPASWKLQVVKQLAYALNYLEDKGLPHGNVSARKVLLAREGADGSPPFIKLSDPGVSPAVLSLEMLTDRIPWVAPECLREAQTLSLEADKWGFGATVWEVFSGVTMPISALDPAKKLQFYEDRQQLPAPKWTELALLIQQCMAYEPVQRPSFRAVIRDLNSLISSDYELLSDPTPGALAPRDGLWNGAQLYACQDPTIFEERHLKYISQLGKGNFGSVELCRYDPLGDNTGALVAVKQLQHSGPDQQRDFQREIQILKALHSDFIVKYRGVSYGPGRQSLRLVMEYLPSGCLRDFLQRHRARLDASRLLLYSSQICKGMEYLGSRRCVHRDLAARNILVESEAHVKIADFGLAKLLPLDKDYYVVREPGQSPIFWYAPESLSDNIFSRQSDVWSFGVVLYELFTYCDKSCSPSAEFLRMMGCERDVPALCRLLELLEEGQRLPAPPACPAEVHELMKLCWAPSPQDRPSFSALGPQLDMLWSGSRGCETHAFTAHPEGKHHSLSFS
Kind of experiment: JAK Caliper Enzyme Assay at 4 μM ATP. It is filed as biochemical. The method in brief: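 Test compounds were diluted in DMSO as an 11-point half-log series from a 600 μM top concentration (DMSO series, not final assay level). Enzyme amount and incubation time were set per enzyme prep to reach 20%-30% phosphorylation. Phosphorylated and unphosphorylated peptide were resolved by microfluidic separation.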

Experiment [1] has as its system IL-15 induced P-STAT5 in human PBMC. Kind of experiment: PBMC IL-15 Induced P-STAT5. The class given is cell-based. The settings on record: human PBMC, IL-15 final 41 ng/mL; read-out: PBMC IL15_pSTAT5_IC50. The method in brief: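 Thawed human PBMC, rested in human plasma, were preincubated 15 min at 37 °C with compound (0.2% DMSO), then stimulated 15 min with IL-15 at 41 ng/mL final. After paraformaldehyde fixation and methanol permeabilisation, Alexa Fluor 647 anti-STAT5 staining overnight at 4 °C was analysed by flow cytometry on total lymphocytes.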

For `C=CC(=O)N1CCN(c2cnc3[nH]cc(C(=O)N[C@H]4CCO[C@H]4C)c3n2)CC1(C)C` [Example 166, 3-({[2-(4-acryloyl-3,3-dimethylpiperazin-1-yl)-5H-pyrrolo[2,3-b]pyrazin-7-yl]carbonyl}amino)-2,5-anhydro-1,3,4-trideoxy-L-threo-pentitol], the results for the IC50 (on JAK3 enzyme; in experiment [1]) were 0.667 nM and 168 nM, respectively.

In the case of `C=CC(=O)N1CCC(Nc2cnc3[nH]cc(C(=O)NCC4CC4)c3n2)CC1` [Example 172, 2-[(1-acryloylpiperidin-4-yl)amino]-N-(cyclopropylmethyl)-5H-pyrrolo[2,3-b]pyrazine-7-carboxamide], the IC50 at JAK3 enzyme came to 0.448 nM; in experiment [1], 81.3 nM.

For `C=CC(=O)N1CCC(Nc2cnc3[nH]cc(C(=O)NCc4cccc(F)c4)c3n2)CC1` [Example 176, 2-[(1-acryloylpiperidin-4-yl)amino]-N-(3-fluorobenzyl)-5H-pyrrolo[2,3-b]pyrazine-7-carboxamide], the IC50 at JAK3 enzyme turned out to be 0.437 nM; in experiment [1], 24 nM.

As for `C=CC(=O)N1CCC(Nc2cnc3[nH]cc(C(=O)NCCC4CC4)c3n2)CC1` [Example 178, 2-[(1-acryloylpiperidin-4-yl)amino]-N-(2-cyclopropylethyl)-5H-pyrrolo[2,3-b]pyrazine-7-carboxamide], the IC50 at JAK3 enzyme was 0.442 nM; in experiment [1], 88.6 nM.

In the case of `C=CC(=O)N1CCC(Nc2cnc3[nH]cc(C(=O)NCc4ccccc4)c3n2)CC1` [Example 187, 2-[(1-acryloylpiperidin-4-yl)amino]-N-benzyl-5H-pyrrolo[2,3-b]pyrazine-7-carboxamide], the IC50 at JAK3 enzyme amounted to 0.503 nM; in experiment [1], 54.7 nM.

As to `C=CC(=O)N1CCC(Nc2cnc3[nH]cc(C(=O)NCc4ccc(F)cc4)c3n2)CC1` [Example 188, 2-[(1-acryloylpiperidin-4-yl)amino]-N-(4-fluorobenzyl)-5H-pyrrolo[2,3-b]pyrazine-7-carboxamide], the IC50 at JAK3 enzyme was 0.515 nM; in experiment [1], 88 nM.

`C=CC(=O)N1CCC(Nc2cnc3[nH]cc(C(=O)NCc4ccc(F)c(C#N)c4)c3n2)CC1` [Example 189, 2-[(1-acryloylpiperidin-4-yl)amino]-N-(3-cyano-4-fluorobenzyl)-5H-pyrrolo[2,3-b]pyrazine-7-carboxamide]: the IC50 on JAK3 enzyme worked out at 0.689 nM; in experiment [1], 203 nM.

Consider `C=CC(=O)N1CCC(Nc2cnc3[nH]cc(C(=O)NCc4ccccc4F)c3n2)CC1` [Example 196, 2-[(1-acryloylpiperidin-4-yl)amino]-N-(2-fluorobenzyl)-5H-pyrrolo[2,3-b]pyrazine-7-carboxamide], for which the figures for the IC50 (against JAK3 enzyme; in experiment [1]) were 0.479 nM and 54.7 nM, respectively.

As for `C=CC(=O)N1CCC(Oc2cnc3[nH]cc(C(=O)NC45CC(C4)C5)c3n2)CC1` [Example 200, 2-[(1-acryloylpiperidin-4-yl)oxy]-N-(bicyclo[1.1.1]pent-1-yl)-5H-pyrrolo[2,3-b]pyrazine-7-carboxamide], the IC50 was 0.411 nM on JAK3 enzyme and 149 nM in experiment [1].

Take `C=CC(=O)N1CCC(Oc2cnc3[nH]cc(C(=O)N[C@@H](C)CC)c3n2)CC1` [Example 205, 2-[(1-acryloylpiperidin-4-yl)oxy]-N-[(2S)-butan-2-yl]-5H-pyrrolo[2,3-b]pyrazine-7-carboxamide]: the IC50 against JAK3 enzyme turned out to be 0.138 nM; in experiment [1], 92.3 nM.

For the compound `C=CC(=O)N1CCC(Oc2cnc3[nH]cc(C(=O)NC(C)(C)CC)c3n2)CC1` [Example 209, 2-[(1-acryloylpiperidin-4-yl)oxy]-N-(2-methylbutan-2-yl)-5H-pyrrolo[2,3-b]pyrazine-7-carboxamide], the IC50 was 0.609 nM against JAK3 enzyme and 206 nM in experiment [1].

In the case of `C=CC(=O)N1CCC(Oc2cnc3[nH]cc(C(=O)N[C@H](C)COC)c3n2)CC1` [Example 214, 2-[(1-acryloylpiperidin-4-yl)oxy]-N-[(2R)-1-methoxypropan-2-yl]-5H-pyrrolo[2,3-b]pyrazine-7-carboxamide], the values for the IC50 (against JAK3 enzyme; in experiment [1]) were 0.209 nM and 56.9 nM, respectively.
